US4602040A, “Meclofenamic acid topical pharmaceutical composition” (Warner-Lambert Company, priority 1985, dated 1986)

Legend:
carrageenan edema [1] = experiment: carrageenan-induced paw edema, topical meclofenamic acid, C57BL/6 mice; format: in vivo
Procedure: (§1) Method: Carrageenan edema was induced in mice by previously published methods (Levy, L., Life Sciences 8:601, 1969). Briefly, mice were injected in the left rear footpad with either 25 ul or 50 ul of a 1% solution of carrageenan in saline and in the contralateral footpad with a similar volume of saline. At various time intervals thereafter, the swelling was assessed in each of the rear footpads by mercury plethysmography.
(§2) In this example, female C57BL/6 or CD-1 mice were used in all studies, and swelling was assessed five hours after carrageenan injection by mercury plethysmography. Net edema was determined by subtracting the volume of the saline-injected foot from the volume of the carrageenan-injected foot. Meclofenamic acid was administered either topically or perorally one hour after carrageenan injection in a vehicle containing 50% PEG 400 monolaurate, 10 lantrol AWS, and 40% isopropyl alcohol. When applied topically, the appropriate hindpaw was dipped to the hairline in the meclofenamic acid solution or vehicle and rubbed gently for 15 seconds by a technician wearing rubber gloves. Approximately 50 ul of the meclofenamic acid or vehicle solution was used to treat each hindpaw.
(§3) Meclofenamic acid was administered orally by gavage needle in a volume of 50 ul of the monolaurate/lantrol AWS/isopropyl alcohol vehicle used above. Statistical differences in swelling between experimental groups were determined by student's t-test.

[2] = solubility of the drug in water and organic solvents; format: physicochemical
carrageenan edema [3] = experiment: carrageenan-induced paw edema, topical meclofenamic acid, CD-1 mice; format: in vivo
Procedure: as §1
as §2, with “Approximately 50 ul of the meclofenamic acid or vehicle solution was used to treat each hindpaw.” left out
as §3

[4] = octanol/water partition coefficient; format: physicochemical
[5] = solubility in water-miscible solvents; format: physicochemical
carrageenan edema [6] = experiment: carrageenan-induced paw edema, topical versus oral / distant-site administration; format: in vivo, C57BL/6 mice
Procedure: as §1, §2, §3
To determine whether the observed activity of meclofenamic acid was actually due to topical rather than oral (as a result of preening) absorption, meclofenamic acid compositions (containing 1, 3 or 5% active ingredient in the above vehicle) were administered orally or topically (to the carrageenan-injected paw) and the effects on swelling were determined.

In the case of `Cc1ccc(Cl)c(Nc2ccccc2C(=O)O)c1Cl` [meclofenamic acid], the “sensitivity of C57BL/6 mice to the effects of meclofenamic acid” value (carrageenan edema [1]; C57BL/6 compared with CD-1 mice, topical) is reported as “slightly more sensitive”, the “reduction in swelling (in words)” value (carrageenan edema [1]; C57BL/6 mice, topical to carrageenan-injected foot one hour after carrageenan, swelling at five hours) is reported as “dose-dependent reduction in swelling” and the “inhibition of swelling (maximum effect)” value (carrageenan edema [1]; C57BL/6 mice, topical, 3% concentration, five hours after carrageenan) is reported as 49.7%. The “solubility in glycerin, isopropyl myristate and mineral oil” value ([2]; glycerin, isopropyl myristate, mineral oil) was “insoluble”, the “solubility in propylene glycol, ethyl alcohol and linoleic acid” value ([2]; propylene glycol, ethyl alcohol, linoleic acid) was “less than 5%” and the water solubility ([2]; water) was “virtually water-insoluble”. The “reduction in swelling (in words)” value (carrageenan edema [3]; topical to carrageenan-injected foot one hour after carrageenan, swelling at five hours) was “dose-dependent reduction in swelling”, the “inhibition of swelling (maximum effect)” value (carrageenan edema [3]; topical, 5% concentration, five hours after carrageenan) was 36.4% and the octanol/water partition coefficient [4] was “highly favorable”. For the same compound, the “solubility in water-miscible solvents with the aid of heating” value ([5]; heating up to 90° C., same solvents, compared with room temperature) was “more”, the “solubility in water-miscible solvents” value ([5]; room temperature, PEG 400, PEG-8 monolaurate, PEG glucose ethers (Glucam-E 10, P-20), PEG-75 Lanolin Oil, PPG-5-Ceteth-10 Phosphate) was ≤ 5% and the “inhibition of swelling, carrageenan-injected foot versus distant site” value (carrageenan edema [6]; topical to carrageenan-injected foot vs distant site (saline-injected foot), 1, 3, and 5% concentrations, p<0.05) was “significantly (p<0.05) more inhibitory”. The “inhibition of swelling, topical versus oral” value (carrageenan edema [6]; topical to carrageenan-injected foot vs oral, 1, 3, and 5% concentrations, p<0.05) was “significantly (p<0.05) more inhibitory” and the local anti-inflammatory activity (carrageenan edema [6]; topically applied, data from Examples 5 and 6) was “significant local anti-inflammatory activity”.
